Experimental data published in article PMC12381739, “Druglike Molecular Degraders of the Oncogenic RNA-Binding Protein HuR” (JACS Au, 2025).

Biological target: HuR (Homo sapiens, UniProt Q15717)
Test: Fluorescence binding assay using intrinsic fluorescence of the PROTAC with titrated HuR protein
Details: fixed 100 μM degrader, increasing HuR; fluorescence rises over 0.0075–0.1 nM and 0.125–1 nM
Description: To elucidate the mechanism underlying the observed biphasic degradation pattern, we generated a docking model using the Schrödinger software. […] This preferential binding correlates with the initial phase of degradation observed at low degrader concentrations (5 nM to 100 nM; Figures B and B and ). At higher degrader concentrations (e.g., 10 μM), different complex engagement may occur at the P2 RNA-binding pocket. […] Unlike the previous displacement assay–which monitored competition between labeled RNA and HuR–we utilized the intrinsic fluorescence of the PROTAC derivative at a fixed concentration while titrating HuR protein. This approach allowed us to detect fluorescence changes corresponding to HuR binding events. […] Fluorescence increased over two separate concentration ranges–0.0075–0.1 nM and 0.125–1 nM–with a clear dip between 0.1 and 0.125 nM. […]
As part of the dual-binding evaluation, Pro-HuR3 fluorescence was first characterized across a concentration range (1–100 μM; 1, 2, 5, 10, 20, 50, and 100 μM). The assays were performed in PBS buffer (20 mM sodium phosphate, 150 mM NaCl, 1 mM dithiothreitol, 0.05% PLURONIC-127, 15% DMSO) at 293 K. Fluorescence spectra were recorded using the Synergy H1 Hybrid Multi-Mode Microplate Reader (Biotek, Agilent), with excitation and emission scans identifying optimal wavelengths of 405–415 nm (excitation) and 520 nm (emission), respectively. […]

Sequence of HuR (Q15717 whole entry): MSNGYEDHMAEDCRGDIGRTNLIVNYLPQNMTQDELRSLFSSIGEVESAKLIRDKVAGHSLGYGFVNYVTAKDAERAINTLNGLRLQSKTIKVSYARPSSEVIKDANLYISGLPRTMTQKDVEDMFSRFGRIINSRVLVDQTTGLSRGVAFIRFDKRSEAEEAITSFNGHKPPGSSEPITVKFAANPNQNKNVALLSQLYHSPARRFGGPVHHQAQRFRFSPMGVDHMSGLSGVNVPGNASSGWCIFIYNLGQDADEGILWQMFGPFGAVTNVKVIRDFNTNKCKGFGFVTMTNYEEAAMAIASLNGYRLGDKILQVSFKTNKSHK

O=C1CCC(N2C(=O)c3cccc(NCc4cn(-c5ccc6sc(C(=O)O)cc6c5)nn4)c3C2=O)C(=O)N1 (stereo not shown) [PRO-HuR3]
binding response on HuR titration (intrinsic fluorescence): two distinct IC50 values
